From US4927842A, “2,3,4,9-tetrahydro-1H-carbazole acetic acid derivatives, composition and use as anti-inflammatories” (American Home Products Corporation, priority 1989, dated 1990) come the findings set out here.

This test has as its system rats. Description: Preventative Adjuvant Edema (acute anti-inflammatory effect in rats). The class given is in vivo, Male Sprague Dawley rats. The note with it: 25 mg/kg, p.o.; given immediately before, 24 and 48 hours after Freund's complete adjuvant; hind paw edema volume day 0 to day 3. As to the method:
This test is a primary screen for anti-inflammatory drugs.
Male Sprague Dawley rats (180-200 g) are used. The animals have free access to water but food is withdrawn 18 hours before testing.
Freund's complete adjuvant is prepared by suspending 5 mg killed and dried Mycobacterium butyricum (Difco) in 1 mL mineral oil. The test compounds are dissolved in distilled water or suspended in 0.5% Tween 80 in distilled water according to their solubility. For primary screening all drugs are administered by gastric lavage at the arbitrary dosage of 25 mg/kg, p.o. in a volume of 0.5 mL/100 g body weight to groups of 10 animals.
The method is essentially that described by Wax et al, J. Pharmacol. Exp. Ther., 192, 166-171 (1975). Groups of rats are injected intradermally in the left hand paw with 0.1 mL of Freund's complete adjuvant. The test compound or vehicle is administered immediately before the adjuvant, 24 hours and 48 hours after the adjuvant (day 0, 1 and 2). The injected hind paw volume is measured before the injection of adjuvant and 24 hours after the last drug administration (day 3) by means of a plethysmometer (Buxco Electronics Inc.). The difference between the hind paw volume on day 0 and day 3 represents the edema volume. Etodolac (25 mg/kg, p.o.) is included as a positive control.
The mean edema volume (expressed as mL±SEM) is calculated for each group and the percentage protection conferred by the drug is calculated: [formula] where c is the mean edema volume for the untreated controls and t is the mean edema volume for the drug treated group.
As to `CC[C@]1(CC(=O)O)CC[C@@H](CC=NOC)c2c1[nH]c1c(C)cccc21` (relative stereo) [Example 2, cis-1-Ethyl-2,3,4,9-tetrahydro-4-[2-(methoxyimino)ethyl]-8-methyl-1H-carbazole-1-acetic Acid], the “% Inhibition” value was 45%.

As to `CC[C@]1(CC(=O)O)CC[C@@H](CC(C)=O)c2c1[nH]c1c(C)cccc21` (relative stereo) [Example 3, cis-1-Ethyl-2,3,4,9-tetrahydro-8-methyl-4-(2-oxopropyl)-1H-carbazole-1-acetic Acid], the “% Inhibition” value is given as 52%.

With `CC[C@]1(CC(=O)O)CC[C@@H](CC#N)c2c1[nH]c1c(C)cccc21` (relative stereo) [Example 4, cis-4-(Cyanomethyl)-1-ethyl-2,3,4,9-tetrahydro-8-methyl-1H-carbazole-1-acetic Acid], the “% Inhibition” value is on record as 52%.

As for “cis-1-Ethyl-2,3,4,9-tetrahydro-4-[2-(hydroxyimino)ethyl]-8-methyl-1H-carbazole-1-acetic Acid [Example 1]”, the “% Inhibition” value was determined as 59%.
